{"source": "paper PMC8800111", "about": "(The Journal of Biological Chemistry, 2021)", "type_in_all_cases": "cell-based", "key": {"[1]": {"target": "proteins of U3A human fibrosarcoma cells (4462 proteins detected) (Homo sapiens, UniProt O00244)", "conditions": "protein ATOX1, U3A cells"}, "[2]": {"target": "proteins of U3A human fibrosarcoma cells (4462 proteins detected) (Homo sapiens, UniProt O14964)", "conditions": "protein HGS; U3A cells"}, "[3]": {"target": "proteins of U3A human fibrosarcoma cells (4462 proteins detected) (Homo sapiens, UniProt O43402)", "sequence (O43402 whole entry)": "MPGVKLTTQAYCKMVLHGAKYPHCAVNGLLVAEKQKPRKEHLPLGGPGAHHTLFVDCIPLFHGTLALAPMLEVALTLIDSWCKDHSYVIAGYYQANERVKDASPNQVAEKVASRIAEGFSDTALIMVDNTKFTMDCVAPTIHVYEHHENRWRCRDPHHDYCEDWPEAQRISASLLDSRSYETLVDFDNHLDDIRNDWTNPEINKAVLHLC", "conditions": "protein EMC8; soluble abundance after heat, U3A cells"}, "[4]": {"target": "proteins of U3A human fibrosarcoma cells (4462 proteins detected) (Homo sapiens, UniProt O43683)", "conditions": "protein BUB1; U3A cells"}, "[5]": {"target": "proteins of U3A human fibrosarcoma cells (4462 proteins detected) (Homo sapiens, UniProt O75347)", "conditions": "protein TBCA, U3A cells"}, "[6]": {"target": "proteins of U3A human fibrosarcoma cells (4462 proteins detected) (Homo sapiens, UniProt O75367)", "conditions": "protein H2AFY; U3A, 10 μM, 2 h"}, "[7]": {"target": "proteins of U3A human fibrosarcoma cells (4462 proteins detected) (Homo sapiens, UniProt O95059)", "sequence (O95059 whole entry)": "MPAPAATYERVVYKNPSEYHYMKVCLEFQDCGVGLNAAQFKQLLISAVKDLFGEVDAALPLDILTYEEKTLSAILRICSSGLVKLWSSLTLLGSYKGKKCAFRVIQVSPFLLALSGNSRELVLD", "conditions": "protein RPP14; soluble abundance after heat, U3A cells"}, "[8]": {"target": "proteins of U3A human fibrosarcoma cells (4462 proteins detected) (Homo sapiens, UniProt O95456)", "conditions": "protein PSMG1, U3A cells"}, "[9]": {"target": "proteins of U3A human fibrosarcoma cells (4462 proteins detected) (Homo sapiens, UniProt P14854)", "conditions": "protein COX6B1, U3A cells"}, "[10]": {"target": "proteins of U3A human fibrosarcoma cells (4462 proteins detected) (Homo sapiens, UniProt P39748)", "conditions": "protein FEN1; U3A, 10 μM, 2 h"}, "[11]": {"target": "proteins of U3A human fibrosarcoma cells (4462 proteins detected) (Homo sapiens, UniProt P40227)", "conditions": "protein CCT6A; U3A cells"}, "[12]": {"target": "proteins of U3A human fibrosarcoma cells (4462 proteins detected) (Homo sapiens, UniProt P49321)", "conditions": "protein NASP, U3A cells"}, "[13]": {"target": "proteins of U3A human fibrosarcoma cells (4462 proteins detected) (Homo sapiens, UniProt Q12893)", "conditions": "protein TMEM115; U3A, 10 μM, 2 h"}, "[14]": {"target": "proteins of U3A human fibrosarcoma cells (4462 proteins detected) (Homo sapiens, UniProt Q15459)", "conditions": "protein SF3A1; U3A cells"}, "[15]": {"target": "proteins of U3A human fibrosarcoma cells (4462 proteins detected) (Homo sapiens, UniProt Q5T4S7)", "conditions": "protein UBR4; soluble abundance after heat, U3A cells"}, "[16]": {"target": "proteins of U3A human fibrosarcoma cells (4462 proteins detected) (Homo sapiens, UniProt Q6QNY1)", "conditions": "protein BLOC1S2, U3A cells"}, "[17]": {"target": "proteins of U3A human fibrosarcoma cells (4462 proteins detected) (Homo sapiens, UniProt Q6ZQQ6)", "sequence (Q6ZQQ6 whole entry)": "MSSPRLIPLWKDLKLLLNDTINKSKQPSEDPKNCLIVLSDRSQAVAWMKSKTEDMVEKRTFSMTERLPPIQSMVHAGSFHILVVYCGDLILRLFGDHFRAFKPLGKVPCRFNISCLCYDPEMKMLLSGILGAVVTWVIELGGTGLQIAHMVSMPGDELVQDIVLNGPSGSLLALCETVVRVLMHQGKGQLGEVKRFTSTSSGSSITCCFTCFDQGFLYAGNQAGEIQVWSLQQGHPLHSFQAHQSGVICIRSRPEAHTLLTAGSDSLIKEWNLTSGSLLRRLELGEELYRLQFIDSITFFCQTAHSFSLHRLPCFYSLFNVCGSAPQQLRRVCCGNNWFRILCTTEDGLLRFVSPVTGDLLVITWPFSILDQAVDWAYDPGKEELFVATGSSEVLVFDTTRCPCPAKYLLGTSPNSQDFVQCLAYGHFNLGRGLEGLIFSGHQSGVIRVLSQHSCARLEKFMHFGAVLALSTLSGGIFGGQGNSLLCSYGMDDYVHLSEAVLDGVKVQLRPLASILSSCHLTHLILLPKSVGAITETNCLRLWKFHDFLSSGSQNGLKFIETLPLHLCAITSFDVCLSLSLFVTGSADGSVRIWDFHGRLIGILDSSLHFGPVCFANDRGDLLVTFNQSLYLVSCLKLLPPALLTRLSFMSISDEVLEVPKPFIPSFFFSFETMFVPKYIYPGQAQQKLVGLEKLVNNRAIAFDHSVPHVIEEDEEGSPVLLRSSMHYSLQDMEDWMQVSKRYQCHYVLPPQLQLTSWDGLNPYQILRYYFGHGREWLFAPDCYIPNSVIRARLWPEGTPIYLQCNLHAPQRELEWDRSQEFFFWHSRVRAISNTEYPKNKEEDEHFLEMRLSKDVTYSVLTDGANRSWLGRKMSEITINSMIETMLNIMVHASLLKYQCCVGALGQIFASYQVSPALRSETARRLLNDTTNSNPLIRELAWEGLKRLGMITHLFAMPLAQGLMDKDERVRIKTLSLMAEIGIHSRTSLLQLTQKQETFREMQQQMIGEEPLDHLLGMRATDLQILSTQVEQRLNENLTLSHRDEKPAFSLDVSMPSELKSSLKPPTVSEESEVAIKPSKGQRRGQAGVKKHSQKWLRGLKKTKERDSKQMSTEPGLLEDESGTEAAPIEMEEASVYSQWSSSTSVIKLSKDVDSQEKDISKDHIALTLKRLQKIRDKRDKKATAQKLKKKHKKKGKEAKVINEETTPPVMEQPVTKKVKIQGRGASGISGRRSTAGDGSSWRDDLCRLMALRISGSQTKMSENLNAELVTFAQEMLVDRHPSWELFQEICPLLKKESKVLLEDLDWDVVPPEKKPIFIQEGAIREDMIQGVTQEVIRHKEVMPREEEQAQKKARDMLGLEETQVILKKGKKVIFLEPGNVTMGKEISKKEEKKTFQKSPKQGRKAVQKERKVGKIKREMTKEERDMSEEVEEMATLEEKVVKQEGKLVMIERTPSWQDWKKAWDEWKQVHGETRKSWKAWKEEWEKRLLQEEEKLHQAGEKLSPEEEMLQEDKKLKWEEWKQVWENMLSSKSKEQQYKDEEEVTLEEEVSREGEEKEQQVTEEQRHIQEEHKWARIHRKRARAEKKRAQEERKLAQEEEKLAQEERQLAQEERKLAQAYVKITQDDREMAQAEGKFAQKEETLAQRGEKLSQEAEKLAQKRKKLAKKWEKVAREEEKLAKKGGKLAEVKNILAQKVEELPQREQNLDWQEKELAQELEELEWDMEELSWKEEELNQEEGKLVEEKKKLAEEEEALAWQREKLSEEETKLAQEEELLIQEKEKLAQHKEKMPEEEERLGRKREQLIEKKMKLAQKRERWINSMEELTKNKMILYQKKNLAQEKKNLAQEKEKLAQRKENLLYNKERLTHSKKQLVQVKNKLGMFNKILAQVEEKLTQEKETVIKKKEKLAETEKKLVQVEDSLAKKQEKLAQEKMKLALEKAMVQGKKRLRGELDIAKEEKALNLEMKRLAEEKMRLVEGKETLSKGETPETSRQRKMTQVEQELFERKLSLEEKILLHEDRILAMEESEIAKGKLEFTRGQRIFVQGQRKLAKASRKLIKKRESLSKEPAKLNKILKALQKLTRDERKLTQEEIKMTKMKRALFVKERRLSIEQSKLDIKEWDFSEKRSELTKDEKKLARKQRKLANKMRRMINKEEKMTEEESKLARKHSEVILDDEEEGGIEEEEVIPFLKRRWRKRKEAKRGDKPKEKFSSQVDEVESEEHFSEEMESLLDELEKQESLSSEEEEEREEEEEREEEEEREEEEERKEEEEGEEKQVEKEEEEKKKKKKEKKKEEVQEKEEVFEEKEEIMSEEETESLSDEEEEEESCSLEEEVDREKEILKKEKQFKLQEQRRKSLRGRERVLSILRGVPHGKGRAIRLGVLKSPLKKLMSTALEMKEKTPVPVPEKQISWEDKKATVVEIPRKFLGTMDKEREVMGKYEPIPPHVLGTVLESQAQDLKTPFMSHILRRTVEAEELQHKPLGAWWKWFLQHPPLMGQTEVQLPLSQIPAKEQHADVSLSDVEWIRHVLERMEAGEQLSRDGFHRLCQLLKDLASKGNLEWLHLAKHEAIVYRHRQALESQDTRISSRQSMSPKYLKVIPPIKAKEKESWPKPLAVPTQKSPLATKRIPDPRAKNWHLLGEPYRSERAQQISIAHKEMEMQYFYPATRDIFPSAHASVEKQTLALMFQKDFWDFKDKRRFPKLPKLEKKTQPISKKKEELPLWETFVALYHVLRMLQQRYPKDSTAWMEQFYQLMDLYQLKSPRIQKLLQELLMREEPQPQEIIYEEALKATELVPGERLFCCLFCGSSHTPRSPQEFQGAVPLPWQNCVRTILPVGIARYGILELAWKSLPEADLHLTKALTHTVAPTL", "conditions": "protein WDR87; U3A, 10 μM, 2 h"}, "[18]": {"target": "proteins of U3A human fibrosarcoma cells (4462 proteins detected) (Homo sapiens, UniProt Q8WW12)", "conditions": "protein PCNP, U3A cells"}, "[19]": {"target": "proteins of U3A human fibrosarcoma cells (4462 proteins detected) (Homo sapiens, UniProt Q92585)", "conditions": "protein MAML1, U3A cells"}, "[20]": {"target": "proteins of U3A human fibrosarcoma cells (4462 proteins detected) (Homo sapiens, UniProt Q96P48)", "sequence (Q96P48 whole entry)": "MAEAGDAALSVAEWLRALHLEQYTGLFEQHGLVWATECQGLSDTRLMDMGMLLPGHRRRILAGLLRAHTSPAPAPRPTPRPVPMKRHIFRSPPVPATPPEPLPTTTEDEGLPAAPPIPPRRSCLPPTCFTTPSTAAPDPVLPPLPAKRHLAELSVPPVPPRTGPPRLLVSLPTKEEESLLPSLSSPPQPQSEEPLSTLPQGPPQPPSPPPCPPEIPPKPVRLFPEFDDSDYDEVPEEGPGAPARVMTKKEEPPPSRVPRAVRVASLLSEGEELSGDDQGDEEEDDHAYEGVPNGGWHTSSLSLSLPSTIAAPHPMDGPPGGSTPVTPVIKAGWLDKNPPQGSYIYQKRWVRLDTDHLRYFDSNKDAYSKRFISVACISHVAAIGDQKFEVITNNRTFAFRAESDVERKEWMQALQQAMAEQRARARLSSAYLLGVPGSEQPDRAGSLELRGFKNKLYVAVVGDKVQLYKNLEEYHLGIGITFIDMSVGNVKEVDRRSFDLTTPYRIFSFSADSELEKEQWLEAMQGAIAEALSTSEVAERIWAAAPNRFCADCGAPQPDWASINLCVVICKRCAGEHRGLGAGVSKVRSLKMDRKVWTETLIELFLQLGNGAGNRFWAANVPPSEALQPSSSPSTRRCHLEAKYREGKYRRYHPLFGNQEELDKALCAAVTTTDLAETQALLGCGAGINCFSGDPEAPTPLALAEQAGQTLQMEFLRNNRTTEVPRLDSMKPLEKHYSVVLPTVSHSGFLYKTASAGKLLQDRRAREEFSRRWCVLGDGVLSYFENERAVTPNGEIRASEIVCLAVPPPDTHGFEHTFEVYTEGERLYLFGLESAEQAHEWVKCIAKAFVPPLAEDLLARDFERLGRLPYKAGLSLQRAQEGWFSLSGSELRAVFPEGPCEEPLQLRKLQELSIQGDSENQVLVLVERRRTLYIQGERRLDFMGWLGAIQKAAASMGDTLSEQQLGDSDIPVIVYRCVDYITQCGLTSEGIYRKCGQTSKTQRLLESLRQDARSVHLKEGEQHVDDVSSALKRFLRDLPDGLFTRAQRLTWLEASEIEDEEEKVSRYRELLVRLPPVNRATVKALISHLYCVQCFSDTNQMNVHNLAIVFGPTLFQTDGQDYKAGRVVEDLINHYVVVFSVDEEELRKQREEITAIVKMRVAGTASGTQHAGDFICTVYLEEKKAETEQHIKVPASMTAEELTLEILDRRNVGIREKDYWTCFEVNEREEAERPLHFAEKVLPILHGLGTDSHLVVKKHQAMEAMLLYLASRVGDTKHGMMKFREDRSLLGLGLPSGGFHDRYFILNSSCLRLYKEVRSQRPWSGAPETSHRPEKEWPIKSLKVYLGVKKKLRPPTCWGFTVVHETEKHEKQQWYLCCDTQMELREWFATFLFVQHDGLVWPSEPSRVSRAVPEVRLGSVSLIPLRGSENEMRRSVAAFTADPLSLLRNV", "conditions": "protein ARAP1; soluble abundance after heat, U3A cells"}, "[21]": {"target": "proteins of U3A human fibrosarcoma cells (4462 proteins detected) (Homo sapiens, UniProt Q9BZE1)", "conditions": "protein MRPL37; U3A, 10 μM, 2 h"}, "[22]": {"target": "proteins of U3A human fibrosarcoma cells (4462 proteins detected) (Homo sapiens, UniProt Q9H1B7)", "conditions": "protein IRF2BPL; soluble abundance after heat, U3A cells"}, "[23]": {"target": "proteins of U3A human fibrosarcoma cells (4462 proteins detected) (Homo sapiens, UniProt Q9H3N1)", "conditions": "protein TMX1; U3A cells"}, "[24]": {"target": "proteins of U3A human fibrosarcoma cells (4462 proteins detected) (Homo sapiens, UniProt Q9H4E7)", "conditions": "protein DEF6; U3A cells"}, "[25]": {"target": "proteins of U3A human fibrosarcoma cells (4462 proteins detected) (Homo sapiens, UniProt Q9HC38)", "conditions": "protein GLOD4, U3A cells"}, "[26]": {"target": "proteins of U3A human fibrosarcoma cells (4462 proteins detected) (Homo sapiens, UniProt Q9NQW6)", "conditions": "protein ANLN; soluble abundance after heat, U3A cells"}, "[27]": {"target": "proteins of U3A human fibrosarcoma cells (4462 proteins detected) (Homo sapiens, UniProt Q9NSV4)", "conditions": "protein DIAPH3, U3A cells"}, "[28]": {"target": "proteins of U3A human fibrosarcoma cells (4462 proteins detected) (Homo sapiens, UniProt Q9NWT1)", "sequence (Q9NWT1 whole entry)": "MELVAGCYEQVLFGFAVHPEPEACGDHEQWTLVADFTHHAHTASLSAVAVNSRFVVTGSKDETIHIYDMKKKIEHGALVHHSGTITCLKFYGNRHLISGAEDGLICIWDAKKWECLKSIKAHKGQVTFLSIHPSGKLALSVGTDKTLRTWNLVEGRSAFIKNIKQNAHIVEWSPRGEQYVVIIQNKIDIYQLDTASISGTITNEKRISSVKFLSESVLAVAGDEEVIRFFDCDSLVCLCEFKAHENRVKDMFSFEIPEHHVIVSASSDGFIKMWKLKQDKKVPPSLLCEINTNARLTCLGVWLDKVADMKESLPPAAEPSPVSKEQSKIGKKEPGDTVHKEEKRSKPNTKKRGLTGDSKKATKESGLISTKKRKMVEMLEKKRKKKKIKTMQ", "conditions": "protein PAK1IP1; U3A cells"}, "[29]": {"target": "proteins of U3A human fibrosarcoma cells (4462 proteins detected) (Homo sapiens, UniProt Q9UL16)", "conditions": "protein CFAP45, U3A cells"}, "[30]": {"target": "proteins of U3A human fibrosarcoma cells (4462 proteins detected) (Homo sapiens, UniProt Q9Y2P8)", "conditions": "protein RCL1; U3A cells"}}, "data": [{"smiles": "CCc1nc(N)nc(N)c1-c1ccc(Cl)cc1", "note": "[pyrimethamine]", "values": [{"measurement": "Log2 (PYR/DMSO)", "setting": "[1]", "result": -0.04}, {"measurement": "Log2 (PYR/DMSO)", "setting": "[2]", "result": 0.16}, {"measurement": "Log2 (PYR/DMSO)", "setting": "[3]", "result": 0.15}, {"measurement": "Log2 (PYR/DMSO)", "setting": "[4]", "result": 0.16}, {"measurement": "Log2 (PYR/DMSO)", "setting": "[5]", "result": -0.04}, {"measurement": "Log2 (PYR/DMSO), H2AFY", "setting": "[6]", "result": 0.33}, {"measurement": "Log2 (PYR/DMSO)", "setting": "[7]", "result": 0.14}, {"measurement": "Log2 (PYR/DMSO)", "setting": "[8]", "result": -0.05}, {"measurement": "Log2 (PYR/DMSO)", "setting": "[9]", "result": -0.04}, {"measurement": "Log2 (PYR/DMSO), FEN1", "setting": "[10]", "result": 0.23}, {"measurement": "Log2 (PYR/DMSO)", "setting": "[11]", "result": 0.20}, {"measurement": "Log2 (PYR/DMSO)", "setting": "[12]", "result": -0.04}, {"measurement": "Log2 (PYR/DMSO), TMEM115", "setting": "[13]", "result": 0.38}, {"measurement": "Log2 (PYR/DMSO)", "setting": "[14]", "result": 0.16}, {"measurement": "Log2 (PYR/DMSO)", "setting": "[15]", "result": 0.14}, {"measurement": "Log2 (PYR/DMSO)", "setting": "[16]", "result": -0.04}, {"measurement": "Log2 (PYR/DMSO), WDR87", "setting": "[17]", "result": -0.16}, {"measurement": "Log2 (PYR/DMSO)", "setting": "[18]", "result": -0.04}, {"measurement": "Log2 (PYR/DMSO)", "setting": "[19]", "result": -0.04}, {"measurement": "Log2 (PYR/DMSO)", "setting": "[20]", "result": 0.14}, {"measurement": "Log2 (PYR/DMSO), MRPL37", "setting": "[21]", "result": 0.29}, {"measurement": "Log2 (PYR/DMSO)", "setting": "[22]", "result": 0.14}, {"measurement": "Log2 (PYR/DMSO)", "setting": "[23]", "result": 0.20}, {"measurement": "Log2 (PYR/DMSO)", "setting": "[24]", "result": 0.22}, {"measurement": "Log2 (PYR/DMSO)", "setting": "[25]", "result": -0.04}, {"measurement": "Log2 (PYR/DMSO)", "setting": "[26]", "result": 0.14}, {"measurement": "Log2 (PYR/DMSO)", "setting": "[27]", "result": -0.04}, {"measurement": "Log2 (PYR/DMSO)", "setting": "[28]", "result": 0.18}, {"measurement": "Log2 (PYR/DMSO)", "setting": "[29]", "result": -0.04}, {"measurement": "Log2 (PYR/DMSO)", "setting": "[30]", "result": 0.21}]}]}
